± gives the expanded uncertainty stated by the source.
Experiments:
[1] = Crystal; visual observation
[2] = Molar enthalpy of transition or fusion; settings: Crystal; DSC

Row | SMILES | Normal melting temperature [1] [°C] | Molar enthalpy of transition or fusion [2] [kcal/mol]
1 | Clc1ccc(Br)cc1 [1-bromo-4-chlorobenzene] | 65.00 ± 1 | 4.76 ± 0.143
2 | O=Cc1cccc(O)c1 [3-hydroxybenzaldehyde] | 103.00 ± 1 | 5.76 ± 0.167
3 | Nc1cccc(O)c1 [3-hydroxybenzenamine] | 123.00 ± 1 | 6.6 ± 0.191
4 | c1ccc(-c2ccccc2)cc1 [biphenyl] | 70.50 ± 1 | 4.61 ± 0.143

From the NIST ThermoML archive (doi:10.1016/j.tca.2012.02.020)
